Measurements taken from US9901624B2, “Methods and compositions for treating nephrogenic diabetes insipidus” (The United States of America as represented by the …, priority 2004, dated 2018).
“Also recorded” adds a separate entry of the source. Where two headings read alike, the source gives them in different places.

Assays:
P2Y11 = biological target: T1, P2Y11 (Homo sapiens, UniProt Q96G91); conditions: cDNA library source: Human placenta; cited from earlier work
T1 sequence (Q96G91 1-374): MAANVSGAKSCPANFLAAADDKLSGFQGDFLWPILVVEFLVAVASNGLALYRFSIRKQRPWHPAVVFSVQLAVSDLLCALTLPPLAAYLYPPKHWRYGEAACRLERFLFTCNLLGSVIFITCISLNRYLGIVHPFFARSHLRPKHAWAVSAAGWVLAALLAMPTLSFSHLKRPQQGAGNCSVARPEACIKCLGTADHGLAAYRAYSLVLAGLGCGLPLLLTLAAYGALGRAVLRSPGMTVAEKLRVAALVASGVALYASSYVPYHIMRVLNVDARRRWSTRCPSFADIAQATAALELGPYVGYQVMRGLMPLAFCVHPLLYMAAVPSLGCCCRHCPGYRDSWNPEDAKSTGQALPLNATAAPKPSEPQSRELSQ

[1] = in vivo; cited from earlier work
P2Y1 [2] = biological target: P2Y1 (Rattus norvegicus, UniProt P49651); conditions: cited from earlier work
Sequence of P2Y1 (Rattus norvegicus, UniProt P49651) (P49651 whole entry): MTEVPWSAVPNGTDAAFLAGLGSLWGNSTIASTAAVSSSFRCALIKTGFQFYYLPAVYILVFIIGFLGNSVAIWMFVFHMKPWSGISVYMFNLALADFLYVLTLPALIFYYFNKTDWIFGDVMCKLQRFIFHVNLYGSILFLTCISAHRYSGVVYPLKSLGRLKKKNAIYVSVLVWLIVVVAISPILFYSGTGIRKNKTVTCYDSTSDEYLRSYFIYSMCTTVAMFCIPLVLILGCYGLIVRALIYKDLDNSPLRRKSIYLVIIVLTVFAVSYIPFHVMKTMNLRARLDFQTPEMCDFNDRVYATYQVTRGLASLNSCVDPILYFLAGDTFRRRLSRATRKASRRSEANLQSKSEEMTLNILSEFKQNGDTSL

[3] = Apyrase treatment day 7 to 14 in lithium-fed and regular diet rats: urine flow; assay type: in vivo, Sprague-Dawley rats
Protocol: (§1) It is non-toxic and safe to administer either intravenously or intraperitoneally. Two experiments were conducted. In one experiment Sprague-Dawley rats were divided into two groups (N=4 per group). One group was fed with regular rat chow, while the other was fed regular rat chow to which Lithium Chloride was added to a concentration of 40 mmol/kg wt of the food. Both groups were fed for 14 days without any other treatment. The second experiment was similar to the first one, except that potato apyrase (Sigma Chemical Co) was administered to both regular and lithium-added diet fed rats front day 7 to day 14 at a dose of 100 units/kg body wt. intraperitoneally, three times a day (˜8 hourly intervals). All rats had free access to drinking water. Twenty-four hour urine samples were collected from all rats on day 7 and 14 prior to euthanasia, and analyzed. All rats were euthanized on day 14, and IMCD suspensions were prepared. Basal and ATPγS-stimulated ex vivo PGE2 release by IMCD was determined as per the methods previously established.

[4] = system: P2Y2 receptor-stimulated PGE2 release by IMCD; test: Apyrase treatment in rats: basal and ATPγS-stimulated ex vivo PGE2 release by IMCD; parameters: species or system Sprague-Dawley rats
Protocol: as §1

P2Y2 receptor [5] = biological target: T2, P2Y2 receptor (Rattus norvegicus, UniProt P41232); conditions: reversible fashion; cited from earlier work
T2 construct: Freshly prepared IMCD-enriched fractions were incubated at 37.degree; C. under physiological conditions; from tissue; host or cells: rat kidney inner medulla / inner medullary collecting duct (IMCD) preparations
T2 sequence (P41232 whole entry): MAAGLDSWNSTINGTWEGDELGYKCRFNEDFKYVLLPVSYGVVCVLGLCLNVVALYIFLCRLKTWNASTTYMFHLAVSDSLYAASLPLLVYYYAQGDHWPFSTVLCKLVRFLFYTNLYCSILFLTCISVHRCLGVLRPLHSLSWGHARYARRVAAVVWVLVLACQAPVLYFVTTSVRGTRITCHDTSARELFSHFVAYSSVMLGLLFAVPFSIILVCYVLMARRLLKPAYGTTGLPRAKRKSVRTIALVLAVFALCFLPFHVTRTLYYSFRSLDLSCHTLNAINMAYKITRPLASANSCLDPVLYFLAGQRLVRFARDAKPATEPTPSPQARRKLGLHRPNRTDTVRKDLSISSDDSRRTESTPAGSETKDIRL

P2Y4 = P2Y4 (Homo sapiens, UniProt P51582); conditions: cDNA library source: Human chromosome X; cited from earlier work
Sequence of P2Y4 (P51582 whole entry, the tested form may be a part): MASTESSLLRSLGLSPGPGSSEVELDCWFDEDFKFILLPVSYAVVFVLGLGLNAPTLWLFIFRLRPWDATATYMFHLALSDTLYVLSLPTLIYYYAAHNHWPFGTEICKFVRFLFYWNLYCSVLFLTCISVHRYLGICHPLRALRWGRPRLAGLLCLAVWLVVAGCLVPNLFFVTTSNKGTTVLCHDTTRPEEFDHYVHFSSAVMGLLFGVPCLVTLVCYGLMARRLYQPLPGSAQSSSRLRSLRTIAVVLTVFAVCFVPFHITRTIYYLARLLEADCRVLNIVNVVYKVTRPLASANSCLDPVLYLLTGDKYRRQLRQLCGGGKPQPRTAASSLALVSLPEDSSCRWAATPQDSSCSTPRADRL

V2 receptor = conditions: chronic dDAVP infusion; cited from earlier work
P2Y2 receptor [6] = conditions: chronic dDAVP infusion; cited from earlier work
[7] = system: purinergic-driven PGE2 production by IMCD; conditions: normal rats chronically infused with dDAVP 20 ng/h; cited from earlier work
P2Y1 [8] = biological target: P2Y1 (Gallus gallus, UniProt P34996); conditions: cDNA library source: Chick brain; cited from earlier work
Sequence of P2Y1 (Gallus gallus, UniProt P34996) (P34996 whole entry): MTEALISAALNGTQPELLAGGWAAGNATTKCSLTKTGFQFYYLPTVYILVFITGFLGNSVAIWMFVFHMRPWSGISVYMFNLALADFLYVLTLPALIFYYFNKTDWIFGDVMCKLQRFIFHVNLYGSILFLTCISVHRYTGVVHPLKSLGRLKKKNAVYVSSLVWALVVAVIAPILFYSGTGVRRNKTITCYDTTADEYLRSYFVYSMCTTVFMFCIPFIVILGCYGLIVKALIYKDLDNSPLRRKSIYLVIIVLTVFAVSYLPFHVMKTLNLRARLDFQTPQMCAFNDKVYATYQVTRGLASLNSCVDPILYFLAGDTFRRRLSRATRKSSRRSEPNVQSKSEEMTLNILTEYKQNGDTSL

P2Y1 [9] = biological target: P2Y1 (Meleagris gallopavo, UniProt P49652); conditions: cDNA library source: Turkey brain; cited from earlier work
Sequence of P2Y1 (Meleagris gallopavo, UniProt P49652) (P49652 whole entry): as the sequence (P34996 whole entry) above, with T28S counted along it

[10] = control rats fed with regular diet

For `O=c1ccn([C@@H]2O[C@H](COP(=O)(O)OP(=O)(O)O)[C@@H](O)[C@H]2O)c(=O)[nH]1` [UDP], the Agonist activity (P2Y11) is listed as “(UTP, UDP inactive)”.

For `COc1ccc2c(c1)c(CC(=O)O)c(C)n2C(=O)c1ccc(Cl)cc1` [indomethacin], the “polyuria of acquired NDI” value [1] is given as “prevented the polyuria; also recorded: ameliorated”.

For `Nc1ncnc2c1ncn2[C@@H]1O[C@H](COP(=O)(O)CP(=O)(O)OP(=O)(O)O)[C@@H](O)[C@H]1O` [α,β-meATP], the Agonist activity (P2Y1 [2]; cDNA library source: Rat insulinoma cells) is listed as “(α,β-meATP inactive)”.

For apyrase, the urine output [3, 10] was “did not change”, the “urine flow induced by lithium” value ([3]; lithium-fed rats, apyrase day 7 to 14, 100 units/kg intraperitoneally three times a day) was “prevented further increase in the urine flow” and the “P2Y2-mediated PGE2 release by IMCD” value [4, 10] was “did not change”. For the same compound, the “P2Y2 receptor-stimulated PGE2 release by IMCD” value ([4]; lithium-fed rats, compared to apyrase-untreated lithium-fed rats) was “significantly decreased”.

In the case of `Nc1ncnc2c1ncn2[C@@H]1O[C@H](COP(=O)(O)OP(=O)(O)OP(=O)(O)O)[C@@H](O)[C@H]1O` [ATP], the “AVP-stimulated osmotic water permeability (Pf)” value (P2Y2 receptor [5]) is given as “decreased” and the Agonist activity (P2Y4) is given as “UTP > UDP (ATP inactive)”.

For dDAVP, the “expression of V2 receptor mRNA” value (V2 receptor) is listed as “did not change significantly”, the “mRNA expression of P2Y2 receptor, down-regulated to” value (P2Y2 receptor [6]) is listed as 54% and the “protein abundance of P2Y2 receptor, down-regulated to” value (P2Y2 receptor [6]) is listed as 49%. The “purinergic-driven PGE2 production by IMCD” value [7] was “significantly decreased”.

For `Nc1ncnc2c1ncn2[C@@H]1O[C@H](COP(=O)(O)OP(=O)(O)O)[C@@H](O)[C@H]1O` [ADP], the “AVP-stimulated osmotic water permeability (Pf)” value (P2Y2 receptor [5]) is listed as “not”.

In the case of `O=c1ccn([C@@H]2O[C@H](COP(=O)(O)OP(=O)(O)OP(=O)(O)O)[C@@H](O)[C@H]2O)c(=O)[nH]1` [UTP], the “AVP-stimulated osmotic water permeability (Pf)” value (P2Y2 receptor [5]) is given as “decreased”, the Agonist activity (P2Y1 [8]) is given as “inactive)” and the Agonist activity (P2Y11) is given as “(UTP, UDP inactive)”. The Agonist activity (P2Y1 [9]) was “inactive)” and the Agonist activity (P2Y1 [2]; cDNA library source: Rat ileal myocytes) was “ATP (UTP inactive)”.
